Source: patent US6348477B1, “Anti-herpesvirus compounds and methods for identifying, making and using same” (Boehringer Ingelheim(Canada) Ltd., priority 1995, dated 2002)
pEC50, pIC50: −log10 of the molar value. Marks after values point to notes of the source that are not given here.

Columns and labels:
[1] = system: HCMV (strain AD169); assay: Inhibition of HCMV replication, plaque reduction assay (PRA, Hs-68 cells); type: cell-based, human cytomegalovirus; conditions: Group 1 Table 1, read-out: PRA CMV EC50
Procedure: (§1) C) Inhibition of Human Cytomegalovirus (HCMV) replication
(§2) The effect of compounds on the replication of HCMV has been measured by using an ELISA-based assay (ELISA) and a plaque reduction assay (PRA).
(§3) Hs-68 cells ( ATCC # CRL 1635) were seeded in 12-well plates at 83,000 cells/well in 1 mL of DMEM medium (Gibco Canada Inc.) supplemented with 10% fetal bovine serum (FBS, Gibco Canada Inc.). The plates were incubated for 3 days at 37° to allow the cells to reach 80-90% confluency prior to the assay.
The medium was removed from the cells by aspiration. The cells were then infected with approximately 50 PFU of HCMV (strain AD169, ATCC VR-538) in DMEM medium supplemented with 5% inactivated FBS (assay medium). The virus was allowed to adsorb to cells for 2 h at 37°. Following viral adsorption, the medium was removed from the wells by aspiration. The cells were then incubated with or without 1 mL of appropriate concentrations of test reagent in assay medium. After 4 days of incubation at 37°, the medium was exchanged with fresh medium containing test compound and 4 days later the cells were fixed with 1% aqueous formaldehyde and stained with a 2% crystal violet solution in 20% ethanol in water. Microscopic plaques were counted using a stereomicroscope. Drug effects were calculated as a percent reduction in the number of plaques in the presence of each drug concentration compared to the number observed in the absence of drug. Ganciclovir was used as a positive control in all experiments.
The EC50 values obtained according to this assay for certain thiazolyl derivatives of this invention are listed in the following tables under the heading PRA CMV.

[2] = system: HSV-1 strain F or KOS; assay: Inhibition of herpes simplex virus (HSV-1) replication in cell culture (BHK-21 cells, glycoprotein C ELISA); type: cell-based; conditions: Group 1 Table 1
Procedure: B) Inhibition of Herpes Simplex Virus (HSV-1) Replication in Cell Culture
Assay: BHK-21 cells clone 13 (ATCC CCL10) were incubated for two days in 850 cm^2 roller bottles (2×10^7 cells/bottle) with α-MEM medium (Gibco Canada Inc., Burlington, Ontario, Canada) supplemented with 8% (v/v) fetal bovine serum (FBS, Gibco Canada, Inc.). The cells were trypsinized and then 3,000 cells in 100 μL of fresh medium were transferred into each well of a 96-well microtiter plate. The cells were incubated at 37° for a period of 3 days to reach a density of 50,000 cells per well. The cells were washed twice with 100 μL of α-MEM supplemented with 2% heat inactivated FBS and incubated for 1-2 hours in 100 μL of the same medium.
Thereafter, the cells were infected with HSV-1 strain F or KOS (multiplicity of infection=0.05 PFU/cell) in 50 μL of α-MEM supplemented with 2% heat inactivated FBS. Following one hour of virus absorption at 37°, the medium was removed and the cells were washed with α-MEM supplemented with 2% heat inactivated FBS (2×100 μL). The cells were incubated with or without 100 μL of the appropriate concentration of test reagent in α-MEM medium supplemented with 2% heat inactivated FBS. After 24 hours of incubation at 37°, the extent of viral replication was determined by an ELISA assay; for instance, the following assay that detects the late glycoprotein C of HSV-1.
Cells were fixed in the microtiter plate with 100 μL of 0.063% glutaraldehyde in phosphate buffered saline for 30 min at room temperature. The microtiter plate was then washed once with casein blocking solution and blocked with 200 μL of the same solution for one hour at room temperature. Thereafter, 100 μL of mAb C11 recognizing the glycoprotein C of HSV-1 (see E. Trybala et al., Journal of General Virology, 1994, 75, 743) was added to each well for two hours at room temperature. The plate was washed three times with phosphate buffered saline containing 0.05% polyoxyethylene (20) sorbitan monooleate. The cells were incubated with 100 μL of sheep anti-mouse IgG horseradish peroxidase for one hour at room temperature in the dark.
The plate was washed three times with 200 μL of the above-noted phosphate buffer saline preparation, and then once with 0.1 M sodium citrate (pH 4.5). Thereafter, 100 μL of orthophenylenediamine dihydrochloride (OPD, Gibco, Canada Inc.) was added to each well. The plate was agitated on a microplate shaker for 30 min in the dark. Color development was monitored at 450 nm using a microplate spectrophotometer.
SAS was used to calculate % inhibition of viral replication and to generate EC50 values.

[3] = biological target: T1, HSV-1 helicase-primase (Human herpesvirus 1, UniProt P10189+P10236); assay: HSV-1 DNA-dependent ATPase assay (inhibition of HSV-1 helicase-primase); type: biochemical; conditions: Group 1 Table 1
T1 construct: made in house; host or cells: Sf21 insect cells triply infected with recombinant baculoviruses
Text: A) HSV-1 DNA-Dependent ATP Assay (an in Vitro Assay Based on the Inhibition of HSV-1 Helicase-primase).
a) Preparation of enzyme: HSV-1 helicase-primase holoenzyme was produced in triply infected Sf21 cells using recombinant baculoviruses expressing the UL5, UL8 and UL52 helicase-primase subunits, as described by S. Dracheva et al., J. Biol. Chem. 1995, 270, 14148. The crude enzyme was purified by ammonium sulfate precipitation, Source 15Q® chromatography and Sephacryl® S-300 HR gel filtration (both purification systems can be obtained from Pharmacia Biotech Inc., Montreal, Quebec, Canada), see S. Dracheva et al., supra.
b) Assay: The DNA-dependent ATPase assay, described by J. J. Crute et al., Nucleic Acids Res. 1988, 16, 6585, was modified and used to evaluate the capability of the compounds of Group 1-formula 1 to inhibit HSV-1 helicase-primase activity. The reaction mixtures (80 μL each) contained 40 mM 4-(2-hydroxyethyl)-1-piperazineethanesulfonic acid (HEPES, pH 7.5), 10% (v/v) glycerol, 5.5 mM MgCl2, 1 mM DL-dithiothreitol (DTT), 50 μg/mL acetylated bovine serum albumin, 3.3% (v/v) DMSO, 4 mM ATP, 25 μM single-stranded M13 DNA hybridized to double-tailed 68-mer oligonucleotide and 3 μg/mL HSV-1 helicase-primase. After incubation for 20 min at 34°, formation of inorganic phosphate from hydrolysis of ATP was monitored spectrophotometrically at 650 nm using acidic ammonium molybdate/malachite green reagent, P. A. Lanzetta et al., Anal. Biochem. 1979, 100, 95. DNA-dependent ATPase activity was calculated from the net absorbance change in the presence and absence of inhibition.

[4] = system: HCMV (strain AD169); assay: Inhibition of HCMV replication, ELISA assay (Hs-68 cells, p28); type: cell-based, human cytomegalovirus; conditions: Group 1 Table 1, read-out: ELISA CMV EC50
Procedure: as §1, §2
as §3, with “(ATCC” for “( ATCC”, “96 well microtiter” for “12-well”, “10,000” for “83,000”, “100 μL” for “1 mL”
The medium was removed from wells by aspiration. The cells then were infected at a multiplicity of infection (MOI) of 0.01 PFU/cell with 50 μL of HCMV (strain AD169, ATCC VR-538) in DMEM medium supplemented with 5% heat inactivated FBS (assay medium). The virus was allowed to adsorb to cells for 2 h at 37°. Following viral adsorption, the medium was removed from the wells by aspiration. The cells were washed twice with 200 μL of assay medium to remove unabsorbed virus. The cells were then incubated with or without 100 μL of appropriate concentrations of test reagent in assay medium. After 8 days of incubation at 37°, the extent of viral replication was determined by an ELISA assay which detects the late structural protein p28 of HCMV.
Eight days after infection, the medium was aspirated from the wells. Non-specific binding sites were blocked by adding 200 μL of phosphate buffered saline containing 1% (w/v) bovine serum albumin (blocking buffer) to each well and incubating the plates for 30 min at room temperature. After removal of the blocking buffer by aspiration, the cells were fixed with 100 μL of cold ethanol-acetone solution (95:5) per well. The plates were placed at −20° for 30 min. The plates were washed 4 times with phosphate buffered saline containing 0.05% (v/v) polyoxyethylene sorbitan monolaurate (Tween 20®). Thereafter, 100 μL of mAb UL99 (Advanced Biotechnologies Inc., #13-130-100) recognizing HCMV protein p28 was added to each wells and plates were incubated for 2 h at room temperature. The plates were washed four times with 200 μL of the above-noted phosphate buffered saline/Tween-20® solution. The cells were then incubated with 100 μL of sheep anti-mouse IgGγ horseradish peroxidase conjugated for 2 h at room temperature. The plates were then washed four times with 200 μL of above-noted phosphate buffered saline/Tween-20®solution. Thereafter, 100 μL of ortho phenylenediamine dihydrochloride (OPD, Gibco Canada Inc.) solution was added to each well and the plates were agitated on a microplate shaker for 30 min in the dark. Color development was monitored at 450 nm using a microplate spectrophotometer.
The SAS program was used to calculate the % inhibition of viral replication and to generate EC50 values.
The EC50 values obtained according to this assay method for certain thiazolylphenyl derivatives of this invention are listed in the following tables under the heading ELISA CMV.

[5] = system: Hs-68 cells; assay: Cytotoxicity noted in the CMV assays (table footnote); type: cell-based; conditions: Group 1 Table 1
Procedure: as §3, with “(ATCC” for “( ATCC”, “96 well microtiter” for “12-well”, “10,000” for “83,000”, “100 μL” for “1 mL”
as §3

[6] = Human betaherpesvirus 5, AD169, Hs68

T1 sequence (P10189 whole entry): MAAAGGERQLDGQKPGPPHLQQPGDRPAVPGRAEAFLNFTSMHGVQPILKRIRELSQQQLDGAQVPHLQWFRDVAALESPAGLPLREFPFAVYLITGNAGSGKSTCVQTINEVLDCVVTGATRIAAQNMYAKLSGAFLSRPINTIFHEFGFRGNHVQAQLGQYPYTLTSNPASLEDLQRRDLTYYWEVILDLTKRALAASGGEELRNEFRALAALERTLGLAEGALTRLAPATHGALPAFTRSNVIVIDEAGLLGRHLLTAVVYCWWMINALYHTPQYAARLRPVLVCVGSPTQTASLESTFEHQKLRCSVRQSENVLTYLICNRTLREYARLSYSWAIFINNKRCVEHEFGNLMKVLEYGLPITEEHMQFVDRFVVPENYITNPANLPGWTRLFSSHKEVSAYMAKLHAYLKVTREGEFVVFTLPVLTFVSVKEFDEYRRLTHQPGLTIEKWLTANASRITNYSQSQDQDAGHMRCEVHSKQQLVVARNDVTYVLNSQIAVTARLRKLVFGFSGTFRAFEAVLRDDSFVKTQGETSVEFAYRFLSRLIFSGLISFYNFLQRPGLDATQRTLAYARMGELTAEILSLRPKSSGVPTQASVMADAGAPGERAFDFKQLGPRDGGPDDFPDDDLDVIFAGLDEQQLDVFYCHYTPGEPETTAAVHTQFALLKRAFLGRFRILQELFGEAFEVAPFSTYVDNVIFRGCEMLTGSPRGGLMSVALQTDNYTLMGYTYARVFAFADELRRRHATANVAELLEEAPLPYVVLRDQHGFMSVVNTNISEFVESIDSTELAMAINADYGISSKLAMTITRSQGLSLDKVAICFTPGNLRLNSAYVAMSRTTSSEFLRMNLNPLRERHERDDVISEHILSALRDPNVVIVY
T1 sequence (P10192 whole entry, further chain): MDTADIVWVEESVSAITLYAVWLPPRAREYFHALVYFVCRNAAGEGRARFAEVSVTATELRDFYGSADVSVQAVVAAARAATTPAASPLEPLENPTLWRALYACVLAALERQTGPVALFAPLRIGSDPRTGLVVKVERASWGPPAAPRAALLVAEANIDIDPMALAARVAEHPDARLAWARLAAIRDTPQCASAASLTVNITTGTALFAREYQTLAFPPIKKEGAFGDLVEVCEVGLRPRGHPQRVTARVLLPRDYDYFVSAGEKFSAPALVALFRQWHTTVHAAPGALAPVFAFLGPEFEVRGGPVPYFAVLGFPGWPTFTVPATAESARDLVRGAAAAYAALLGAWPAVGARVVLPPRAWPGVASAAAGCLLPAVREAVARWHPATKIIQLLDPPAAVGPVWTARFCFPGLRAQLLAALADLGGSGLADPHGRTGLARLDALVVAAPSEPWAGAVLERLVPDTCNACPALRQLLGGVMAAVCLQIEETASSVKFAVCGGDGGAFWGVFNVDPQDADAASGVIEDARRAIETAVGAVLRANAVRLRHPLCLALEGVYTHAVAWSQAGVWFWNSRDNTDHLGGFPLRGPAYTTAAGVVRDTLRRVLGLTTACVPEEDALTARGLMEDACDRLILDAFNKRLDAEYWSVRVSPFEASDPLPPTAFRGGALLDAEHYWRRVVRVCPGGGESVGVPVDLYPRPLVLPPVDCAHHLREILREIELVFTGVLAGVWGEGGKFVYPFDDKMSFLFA
T1 sequence (P10236 whole entry): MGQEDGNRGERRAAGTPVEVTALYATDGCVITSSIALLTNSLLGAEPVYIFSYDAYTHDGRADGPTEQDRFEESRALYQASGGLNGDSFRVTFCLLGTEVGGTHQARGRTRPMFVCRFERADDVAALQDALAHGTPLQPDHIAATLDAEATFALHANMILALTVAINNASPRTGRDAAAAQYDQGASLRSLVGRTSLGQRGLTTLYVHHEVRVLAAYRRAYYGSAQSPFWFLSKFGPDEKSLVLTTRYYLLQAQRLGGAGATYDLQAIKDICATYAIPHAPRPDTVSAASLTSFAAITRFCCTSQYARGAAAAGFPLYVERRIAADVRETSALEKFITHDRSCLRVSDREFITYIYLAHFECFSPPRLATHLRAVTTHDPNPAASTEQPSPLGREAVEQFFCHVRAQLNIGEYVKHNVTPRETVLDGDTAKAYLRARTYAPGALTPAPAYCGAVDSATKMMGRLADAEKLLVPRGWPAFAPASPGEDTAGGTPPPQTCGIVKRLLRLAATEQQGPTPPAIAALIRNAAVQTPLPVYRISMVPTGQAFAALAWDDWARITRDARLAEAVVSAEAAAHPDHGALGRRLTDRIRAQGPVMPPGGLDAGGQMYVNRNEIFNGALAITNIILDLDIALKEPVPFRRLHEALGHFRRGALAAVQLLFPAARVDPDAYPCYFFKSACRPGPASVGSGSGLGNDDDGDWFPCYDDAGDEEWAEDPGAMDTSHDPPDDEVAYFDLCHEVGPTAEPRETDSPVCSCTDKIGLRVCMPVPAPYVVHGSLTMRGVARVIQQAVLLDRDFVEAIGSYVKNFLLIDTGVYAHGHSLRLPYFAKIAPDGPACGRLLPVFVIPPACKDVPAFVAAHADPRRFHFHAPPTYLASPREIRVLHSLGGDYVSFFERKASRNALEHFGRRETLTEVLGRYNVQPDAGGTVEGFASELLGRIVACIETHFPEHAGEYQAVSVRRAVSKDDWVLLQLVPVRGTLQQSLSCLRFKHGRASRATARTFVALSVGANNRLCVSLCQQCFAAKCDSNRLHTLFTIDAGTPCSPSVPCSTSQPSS

melting point | SMILES | Cytotoxic at this concentration ([5]; asterisk in PRA CMV) | other results
131 to 133 °C | Nc1nc(-c2ccc(NC(=O)CCNCc3ccccc3)cc2)cs1 [Example 8, N-{4-(2-Amino-4-thiazolyl)phenyl}-3-{(phenylmethyl)-amino}propanamide] |  | 
160 to 162 °C | CN(C(=O)CNCc1ccccc1)c1ccc(-c2csc(N)n2)cc1 [Example 10, N-{4-(2-Amino-4-thiazolyl)phenyl}-N-methyl-2-{(phenylmethyl)amino)acetamide] |  | 
183 to 185 °C | CC(C)(C)OC(=O)N[C@@H](Cc1ccccc1)C(=O)Nc1ccc(-c2csc(N)n2)cc1 [Example 11, tert-Butyl N-{2-{{4-(2-Amino-4-thiazolyl)phenyl}-amino}-2-oxo-1(S)-(phenylmethyl)ethyl}carbamate] |  | 
245 to 246 °C | Nc1nc(-c2ccc(NC(=O)[C@H]3CCC(=O)N3Cc3ccccc3)cc2)cs1 [Example 12, N-{4-(2-Amino-4-thiazolyl)phenyl}-5-oxo-1-(phenylmethyl)-2(R)-pyrrolidinecarboxamide] |  | 
238 to 239 °C | CC(C)(C)OC(=O)N1CCC[C@H]1C(=O)Nc1ccc(-c2csc(N)n2)cc1 [Example 13, tert-Butyl 2(S)-{{{4-(2-Amino-4-thiazolyl)phenyl}-amino}carbonyl}-1-pyrrolidinecarboxylate] |  | 
132 to 133 °C | Nc1nc(-c2ccc(NC(=O)[C@@H]3CCCN3C(=O)c3ccccc3)cc2)cs1 [Example 14, N-{4-(2-Amino-4-thiazolyl)phenyl}1-benzoyl-2(S)-pyrrolidinecarboxamide] |  | 
207 to 209 °C | Nc1nc(-c2ccc(NC(=O)[C@@H]3CCCN3Cc3ccccc3)cc2)cs1 [Example 15, N-{4-(2-Amino-4-thiazolyl)phenyl}-1-(phenylmethyl)-2(S)-pyrrolidinecarboxamide] |  | 
 | CC(c1ccccc1)N(CC(=O)Nc1ccc(-c2csc(N)n2)cc1)C(=O)C1CCCCC1 (centres unmarked) [Example 52] |  | pEC50 [1]: 5.22; pEC50 [2]: 7.89; pIC50 [3]: 7.06; pEC50 [4]: 5.89
 | Nc1nc(-c2ccc(NC(=O)CN(CC3CCCCC3)C(=O)C3CCCC3)cc2)cs1 [Example 63] | >21* μM | 
 | CCCC(CCC)N(CC(=O)Nc1ccc(-c2csc(N)n2)cc1)C(=O)C1CCCCC1 [Example 82] | 7* μM | 
 | CC(c1ccccc1)N(CC(=O)Nc1ccc(-c2csc(N)n2)cc1)C(=O)OC(C)(C)C (centres unmarked) [Example 88] |  | pEC50 [2]: 5.92; pIC50 [3]: 5.62; pEC50 [4]: < 4.33
 | CCC(CC)C(=O)N(CC(=O)Nc1ccc(-c2csc(N)n2)cc1)Cc1ccccc1 [Example 104] | >18* μM | 
 | Nc1nc(-c2ccc(NC(=O)CN(CC3CCCCC3)S(=O)(=O)N3CCOCC3)cc2)cs1 [Example 107] | 12* μM | pEC50 [1, 6]: 4.92; pIC50 [3]: 5.59; pEC50 [4, 6]: 5.96
 | CCCC(CCC)N(CC(=O)Nc1ccc(-c2csc(N)n2)cc1)C(=O)OC(C)(C)C [Example 111] |  | Cytotoxic at this concentration ([5]; asterisk in ELISA CMV column): 4.0* μM
 | Nc1nc(-c2ccc(NC(=O)CN(Cc3ccccc3)C(=O)Cc3cccnc3)cc2)cs1 [Example 113] | >50* μM | 
 | Cc1ccccc1CN(CC(=O)Nc1ccc(-c2csc(N)n2)cc1)C(=O)Cc1ccccn1 [Example 127] | 25* μM | 

SMILES | melting point | Cytotoxic at this concentration ([5]; asterisk in PRA CMV) | other results
Nc1nc(-c2ccc(NC(=O)CN(Cc3ccccc3)C(=O)N3CCOCC3)cc2)cs1 [Example 6, N-{2-{{4-(2-Amino-4-thiazolyl)phenyl}amino}-2-oxoethyl}-N-(phenylmethyl)-4-morpholinecarboxamide] | 105 °C (dec.) |  | 
Nc1nc(-c2ccc(NC(=O)CN(Cc3ccccc3)S(=O)(=O)N3CCOCC3)cc2)cs1 [Example 7, N-{4-(2-Amino-4-thiazolyl)phenyl}-2-{(4-morpholinylsulfonyl)(phenylmethyl)amino}acetamide] | 193 to 194 °C |  | 
